Values of other authors as cited in PMC10597649, “Effect of Astragali radix extract on pharmacokinetic behavior of dapagliflozin in healthy and type 2 diabetic rats” (Frontiers in Pharmacology, 2023).

System: P-gp
Parameters: method as in Huang et al., 2012
Conditions: ref Huang et al., 2012; cited from earlier work

CC(=O)O[C@H]1[C@H](O[C@H]2CC[C@]34C[C@]35CC[C@]3(C)[C@@H]([C@@]6(C)CC[C@@H](C(C)(C)O)O6)[C@@H](O)C[C@@]3(C)[C@@H]5C[C@H](O[C@@H]3O[C@H](CO)[C@@H](O)[C@H](O)[C@H]3O)[C@H]4C2(C)C)OC[C@@H](O)[C@@H]1O [Astragaloside II]
P-gp inhibition: potent P-gp inhibitor
